In ChEMBL document CHEMBL1201862, “PubChem BioAssay data set” (2004):
Calls of active or inactive are those of the source.

How the values were obtained:
[1] = target: 1-phosphatidylinositol 4,5-bisphosphate phosphodiesterase gamma-1 (Homo sapiens, UniProt P19174); test: Counterscreen for inhibitors of phospholipase C isozymes (PLC-B3): Fluorescence-based biochemical high throughput dose response assay to identify inhibitors of phospholipase C isozymes (PLC-gamma1).
[2] = target: 1-phosphatidylinositol 4,5-bisphosphate phosphodiesterase beta-3 (Homo sapiens, UniProt Q01970); test: Fluorescence-based biochemical high throughput dose response assay to identify inhibitors of phospholipase C isozymes (PLC-B3).
Sequence of 1-phosphatidylinositol 4,5-bisphosphate phosphodiesterase beta-3 (Q01970 whole entry): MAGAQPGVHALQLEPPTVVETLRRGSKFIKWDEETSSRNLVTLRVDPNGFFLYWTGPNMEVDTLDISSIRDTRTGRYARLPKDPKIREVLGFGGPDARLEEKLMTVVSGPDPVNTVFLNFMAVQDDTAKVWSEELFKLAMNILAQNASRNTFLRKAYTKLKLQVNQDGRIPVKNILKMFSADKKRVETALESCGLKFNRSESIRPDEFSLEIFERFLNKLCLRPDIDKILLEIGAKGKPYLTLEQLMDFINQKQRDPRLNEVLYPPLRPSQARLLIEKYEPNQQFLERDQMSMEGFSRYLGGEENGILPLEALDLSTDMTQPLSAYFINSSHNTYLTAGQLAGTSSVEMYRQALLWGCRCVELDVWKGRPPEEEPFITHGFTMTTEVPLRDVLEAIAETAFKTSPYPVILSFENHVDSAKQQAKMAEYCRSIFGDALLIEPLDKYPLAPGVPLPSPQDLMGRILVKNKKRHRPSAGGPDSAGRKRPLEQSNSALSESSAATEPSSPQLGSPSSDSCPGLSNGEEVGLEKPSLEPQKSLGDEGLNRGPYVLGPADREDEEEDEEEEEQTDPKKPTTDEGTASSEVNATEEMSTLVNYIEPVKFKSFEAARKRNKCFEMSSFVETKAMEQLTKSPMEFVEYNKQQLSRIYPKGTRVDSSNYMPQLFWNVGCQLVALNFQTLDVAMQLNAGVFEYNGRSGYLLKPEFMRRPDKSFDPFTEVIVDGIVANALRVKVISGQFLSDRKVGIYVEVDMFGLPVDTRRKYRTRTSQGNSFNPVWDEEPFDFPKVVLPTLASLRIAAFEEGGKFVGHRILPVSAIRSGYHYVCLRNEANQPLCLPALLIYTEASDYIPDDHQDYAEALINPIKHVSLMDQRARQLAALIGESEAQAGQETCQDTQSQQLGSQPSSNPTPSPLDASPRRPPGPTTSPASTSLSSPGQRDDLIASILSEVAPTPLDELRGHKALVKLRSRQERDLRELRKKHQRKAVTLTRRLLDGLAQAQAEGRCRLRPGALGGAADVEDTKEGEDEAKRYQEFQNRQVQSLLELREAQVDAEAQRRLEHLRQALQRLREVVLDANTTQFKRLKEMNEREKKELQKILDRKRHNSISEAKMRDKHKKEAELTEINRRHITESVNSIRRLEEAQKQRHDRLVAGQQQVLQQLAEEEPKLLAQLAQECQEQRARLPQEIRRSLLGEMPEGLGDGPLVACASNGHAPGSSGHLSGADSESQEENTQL

[3] = Late stage counterscreen for inhibitors of Trypanosoma brucei methionyl tRNA synthetase (MetRS): Luminescence-based cell-based high throughput dose response assay to identify compounds that are cytotoxic to Jurkat human T lymphocyte cells.; type: functional
[4] = A cytotoxicity screen of small molecule inhibitors of the PhoP region in Salmonella typhi identified in the primary screen. [Related pubchem assays: 1850, 1864, 1985 ]; type: functional
INS1 = test: INS-1E survival protection against cytokine death – cell-based, luminescence, retest, dose response (AID 449756); type: functional; conditions: Rattus norvegicus;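 further: cell death triggered by IL-1 beta plus TNF-alpha plus IFN-gamma mixture; protective hits raise ATP signal compared with cytokine alone wells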
[5] = reduction of Shn3 3'UTR-driven luciferase in osteoblasts – cell-based, Clone20 osteoblasts, firefly luciferase, cherry-picked, dose response (AID 624132); type: functional;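 further: firefly luciferase luminescence from reporter carrying the Shn3 3'UTR in osteoblasts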
[6] = loss of viability in HepG2 cells – cell-based, CellTiter-Glo, cherry-picked, cytotoxicity control for Shn3 inhibitor project, dose response (AID 624134); type: functional
[7] = non-specific 3'UTR reporter inhibition in Clone20-Shn3RL – cell-based, Renilla luciferase, cherry-picked, counter-screen for Shn3 inhibitor project, dose response (AID 624133); type: functional
Protein Wnt-3a [8] = target: T1, Protein Wnt-3a (Mus musculus, UniProt P27467); test: antagonism of Wnt3a pathway luciferase reporter – Wnt-LIGHT cells, luminescence, selectivity assay for Gli-SUFU antagonist project, dose response (AID 651570); type: functional; conditions: read-out: IC50_Mean;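 further: Wnt-LIGHT reporter cells stimulated with conditioned medium from Wnt3a-producing cells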
T1 sequence (P27467 whole entry, the tested form may be a part): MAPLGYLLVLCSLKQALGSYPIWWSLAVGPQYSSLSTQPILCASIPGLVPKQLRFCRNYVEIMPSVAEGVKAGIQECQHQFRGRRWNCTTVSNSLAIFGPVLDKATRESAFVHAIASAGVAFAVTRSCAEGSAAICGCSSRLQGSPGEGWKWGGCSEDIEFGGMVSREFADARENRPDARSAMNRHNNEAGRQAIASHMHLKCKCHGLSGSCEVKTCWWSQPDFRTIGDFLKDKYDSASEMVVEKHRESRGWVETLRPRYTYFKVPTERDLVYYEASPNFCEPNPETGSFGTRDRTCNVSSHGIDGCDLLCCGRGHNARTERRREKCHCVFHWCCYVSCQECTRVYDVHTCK

[9] = blockers of HIV-1 envelope-mediated cell-cell fusion – cherry-pick, dose response (AID 652057); type: functional, cell-based
[10] = viability loss in CEM21 cells – cell-based, CellTiter-Glo luminescence, cherry-picked, cytotoxicity control for viral fusion inhibitor project, dose response (AID 652042); type: functional;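 further: potency for signal decrease meaning cytotoxicity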
[11] = blockers of HIV-1 ZM109 envelope-driven cell-cell fusion – HeLa effector, CEM target cells, luciferase, cherry-pick, dose response (AID 652058); type: functional, cell-based;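 further: luciferase signal from HIV-1 Env mediated cell-cell fusion of effector and target cells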
[12] = HIV-1 AD8 envelope cell-cell fusion blockers – cherry-pick, dose response (AID 652062); type: functional, cell-based;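 further: luciferase signal from cell-cell fusion driven by HIV-1 clade B AD8 Env; potency is for inhibitors of fusion seen as a drop in luminescence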
[13] = Shn3 3'UTR reporter signal decrease – cell-based, Clone20 osteoblasts, firefly luciferase, cherry-pick, set 2, Schnurri-3 inhibitor project, dose response (AID 720490); type: functional;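 further: actives lower the luminescence signal as inhibitors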
[14] = target: Voltage-dependent T-type calcium channel subunit alpha-1H (Homo sapiens, UniProt O95180); type: functional;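 further: channel activity triggered by adding a high calcium stimulation buffer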
[15] = activation of miR-122 Renilla sensor silencing – cell-based, Huh7 psiCHECK-miR122, Renilla luciferase, cherry-picked, dose response (AID 651956); type: functional;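 further: huh7 hepatoma cells stably carrying a psiCHECK-2 miR-122 sensor plasmid; renilla luciferase signal reporting endogenous miR-122 activity after 48 h compound exposure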
[16] = general mammalian cell viability loss – activator set, cherry-pick, cytotoxicity control for miR-122 modulator project, dose response (AID 720690); type: functional, cell-based;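 further: HEK293T human cells scored for general mammalian cytotoxicity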
[17] = target: FAD-linked sulfhydryl oxidase ALR (Homo sapiens, UniProt P55789); test: ALR-catalysed DTT oxidation blockers – biochemical, H2O2 detection, luminescence, cherry-pick, dose response (AID 493248)
Sequence of FAD-linked sulfhydryl oxidase ALR (P55789 whole entry): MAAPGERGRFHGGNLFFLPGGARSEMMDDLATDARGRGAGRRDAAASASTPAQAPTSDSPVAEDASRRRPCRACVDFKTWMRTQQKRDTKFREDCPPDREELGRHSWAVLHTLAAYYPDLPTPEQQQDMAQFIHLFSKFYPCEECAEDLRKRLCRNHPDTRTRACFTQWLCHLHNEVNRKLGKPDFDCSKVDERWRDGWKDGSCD

[18] = target: SWI/SNF-related matrix-associated actin-dependent regulator of chromatin subfamily A member 2 (Homo sapiens, UniProt P51531); test: Luminescence-based cell-based high throughput dose response assay to identify activators of the function of SWI/SNF related, matrix associated, actin dependent regulator of chromatin, subfamily a, member 2 (SMARCA2, BRM).; type: functional
Sequence of SWI/SNF-related matrix-associated actin-dependent regulator of chromatin subfamily A member 2 (P51531 whole entry): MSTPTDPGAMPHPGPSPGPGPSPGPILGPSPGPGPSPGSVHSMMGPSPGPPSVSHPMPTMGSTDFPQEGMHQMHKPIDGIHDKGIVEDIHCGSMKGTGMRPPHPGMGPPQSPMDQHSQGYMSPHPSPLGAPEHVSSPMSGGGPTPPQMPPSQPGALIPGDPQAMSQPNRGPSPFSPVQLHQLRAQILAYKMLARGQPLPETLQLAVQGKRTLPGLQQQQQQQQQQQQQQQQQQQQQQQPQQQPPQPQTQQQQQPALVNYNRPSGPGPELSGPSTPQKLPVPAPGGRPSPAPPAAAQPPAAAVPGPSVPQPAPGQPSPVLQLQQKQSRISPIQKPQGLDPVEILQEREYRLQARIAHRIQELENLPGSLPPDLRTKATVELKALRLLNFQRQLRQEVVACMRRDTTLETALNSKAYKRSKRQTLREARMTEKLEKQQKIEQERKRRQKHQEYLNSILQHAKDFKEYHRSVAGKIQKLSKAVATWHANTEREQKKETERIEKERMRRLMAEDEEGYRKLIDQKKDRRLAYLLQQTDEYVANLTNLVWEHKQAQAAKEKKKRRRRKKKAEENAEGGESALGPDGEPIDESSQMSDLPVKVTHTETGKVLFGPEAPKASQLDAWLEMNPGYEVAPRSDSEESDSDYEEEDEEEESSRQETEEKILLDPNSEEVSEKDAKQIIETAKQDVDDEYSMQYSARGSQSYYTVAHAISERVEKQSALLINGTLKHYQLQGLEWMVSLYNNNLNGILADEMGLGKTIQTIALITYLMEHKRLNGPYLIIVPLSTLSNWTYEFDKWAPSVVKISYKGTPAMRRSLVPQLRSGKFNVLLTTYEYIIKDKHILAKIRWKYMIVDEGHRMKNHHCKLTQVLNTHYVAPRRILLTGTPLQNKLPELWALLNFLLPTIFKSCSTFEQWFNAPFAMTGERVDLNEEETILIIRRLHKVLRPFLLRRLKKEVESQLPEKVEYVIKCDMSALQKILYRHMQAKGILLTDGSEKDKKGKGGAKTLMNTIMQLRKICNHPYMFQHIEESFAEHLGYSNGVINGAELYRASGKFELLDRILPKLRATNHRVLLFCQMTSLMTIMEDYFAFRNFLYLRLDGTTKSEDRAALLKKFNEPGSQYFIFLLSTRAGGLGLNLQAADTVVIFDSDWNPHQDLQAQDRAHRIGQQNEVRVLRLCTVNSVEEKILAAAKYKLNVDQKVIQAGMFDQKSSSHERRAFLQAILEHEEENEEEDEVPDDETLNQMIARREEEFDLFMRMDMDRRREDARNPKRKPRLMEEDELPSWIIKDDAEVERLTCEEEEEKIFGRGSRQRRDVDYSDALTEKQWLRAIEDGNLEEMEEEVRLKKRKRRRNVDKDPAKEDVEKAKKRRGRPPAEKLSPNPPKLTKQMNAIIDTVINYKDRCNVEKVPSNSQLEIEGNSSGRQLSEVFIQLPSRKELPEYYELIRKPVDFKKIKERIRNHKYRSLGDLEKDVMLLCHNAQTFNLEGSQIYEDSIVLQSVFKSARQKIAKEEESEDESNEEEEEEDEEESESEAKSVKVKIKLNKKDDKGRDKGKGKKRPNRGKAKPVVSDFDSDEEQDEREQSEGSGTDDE

[19] = Counterscreen for activators of the function of SWI/SNF related, matrix associated, actin dependent regulator of chromatin, subfamily a, member 2 (SMARCA2, BRM): Luminescence-based cell-based high throughput dose response assay to identify non-selective compounds using the VP16 reporter assay.; type: functional
[20] = Luminescence Cell-Based Dose Response to Identify Activators of 5'UTR Stem-Loop Driven Prion Protein mRNA Translation in H4-C Neuroglioblastoma Cells. [Related pubchem assays: 1829 (Project Summary), 1814 (Primary HTS)]; type: functional
[21] = Luminescence Cell-Based Dose Response HTS to Identify Activators of Luciferase Translation or Activity in H4 […] Cells. [Related pubchem assays: 1829 (Project Summary), 1814 (Primary HTS)]; type: functional
H4 = test: Luminescence Cell-Based Dose Response HTS to Identify Activators of 5'UTR Stem-Loop Driven Prion Protein mRNA Translation in H4 Neuroglioblastoma Cells. [Related pubchem assays: 1829 (Project Summary), 1814 (Primary HTS)]; type: functional; conditions: Homo sapiens
[22] = Luminescence Cell-Based Dose Response to Identify Activators of Luciferase Translation or Activity in H4-C Neuroglioblastoma Cells. [Related pubchem assays: 1829 (Project Summary), 1814 (Primary HTS)]; type: functional
[23] = Luminescence Cell-Based Dose Confirmation to Identify Activators of 5'UTR Stem-Loop Driven Alpha-Synuclein mRNA Translation in H4 Neuroglioblastoma Cells. [Related pubchem assays: 1829 (Project Summary), 1814 (Primary HTS)]; type: functional
[24] = target: T2, Rac GTPase-activating protein 1 (Homo sapiens, UniProt Q9H0H5); test: blockers of MgcRacGAP-driven Rac1 GTP hydrolysis – biochemical, ADP Hunter fluorescence, primary and confirmatory, confirmation (AID 624330); type: functional
T2 sequence (Q9H0H5 whole entry): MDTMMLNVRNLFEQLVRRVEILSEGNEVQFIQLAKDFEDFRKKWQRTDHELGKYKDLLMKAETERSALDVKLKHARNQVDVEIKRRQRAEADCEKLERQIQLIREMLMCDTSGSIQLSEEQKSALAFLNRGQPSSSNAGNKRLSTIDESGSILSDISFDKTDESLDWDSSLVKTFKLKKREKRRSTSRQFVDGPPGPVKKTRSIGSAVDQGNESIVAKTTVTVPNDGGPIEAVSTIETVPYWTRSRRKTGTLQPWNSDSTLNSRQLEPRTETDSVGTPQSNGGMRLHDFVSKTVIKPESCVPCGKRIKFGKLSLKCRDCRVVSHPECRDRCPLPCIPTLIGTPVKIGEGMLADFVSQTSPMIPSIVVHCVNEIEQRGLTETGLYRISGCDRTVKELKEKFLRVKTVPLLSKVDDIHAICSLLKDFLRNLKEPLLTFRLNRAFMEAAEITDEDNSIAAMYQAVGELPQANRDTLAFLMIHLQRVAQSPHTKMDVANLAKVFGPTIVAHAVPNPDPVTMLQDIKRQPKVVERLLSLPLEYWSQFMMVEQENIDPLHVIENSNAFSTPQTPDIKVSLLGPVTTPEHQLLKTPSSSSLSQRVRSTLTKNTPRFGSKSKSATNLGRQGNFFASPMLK

[25] = target: T3, Oxysterols receptor LXR-beta (Homo sapiens, UniProt P55055); type: functional, cell-based;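 further: agonist activity at LXR measured by a cell-based luminescence readout across a dose range, run as a counterscreen for daf-12 agonists; HEK293 cells with Gal4-LXR fusion and GAL4-driven luciferase reporter; potency for activation of Gal4-LXR reporter so compounds are agonists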
T3 sequence (P55055 whole entry): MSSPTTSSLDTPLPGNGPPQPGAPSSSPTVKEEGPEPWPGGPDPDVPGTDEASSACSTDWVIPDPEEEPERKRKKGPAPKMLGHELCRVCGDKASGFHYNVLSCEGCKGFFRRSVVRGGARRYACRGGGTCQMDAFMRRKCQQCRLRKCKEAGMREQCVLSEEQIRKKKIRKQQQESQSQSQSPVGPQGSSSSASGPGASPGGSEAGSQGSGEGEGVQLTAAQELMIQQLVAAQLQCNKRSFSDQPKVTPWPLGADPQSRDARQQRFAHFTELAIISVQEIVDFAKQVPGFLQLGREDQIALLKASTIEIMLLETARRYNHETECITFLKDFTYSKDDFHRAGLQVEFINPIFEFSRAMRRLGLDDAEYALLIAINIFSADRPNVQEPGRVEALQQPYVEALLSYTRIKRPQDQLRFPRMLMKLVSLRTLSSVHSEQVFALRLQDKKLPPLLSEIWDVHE

Paired box protein Pax-8 = Paired box protein Pax-8 (Homo sapiens, UniProt Q06710); test: PAX8 transcriptional activity inhibition in RMG-I – RMG-I cells, luciferase, cherry-pick, dose response (AID 687027); type: functional, cell-based;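 further: luciferase reporter driven by Pax8 target thyroperoxidase promoter measured by SteadyGlo luminescence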
Sequence of Paired box protein Pax-8 (Q06710 whole entry): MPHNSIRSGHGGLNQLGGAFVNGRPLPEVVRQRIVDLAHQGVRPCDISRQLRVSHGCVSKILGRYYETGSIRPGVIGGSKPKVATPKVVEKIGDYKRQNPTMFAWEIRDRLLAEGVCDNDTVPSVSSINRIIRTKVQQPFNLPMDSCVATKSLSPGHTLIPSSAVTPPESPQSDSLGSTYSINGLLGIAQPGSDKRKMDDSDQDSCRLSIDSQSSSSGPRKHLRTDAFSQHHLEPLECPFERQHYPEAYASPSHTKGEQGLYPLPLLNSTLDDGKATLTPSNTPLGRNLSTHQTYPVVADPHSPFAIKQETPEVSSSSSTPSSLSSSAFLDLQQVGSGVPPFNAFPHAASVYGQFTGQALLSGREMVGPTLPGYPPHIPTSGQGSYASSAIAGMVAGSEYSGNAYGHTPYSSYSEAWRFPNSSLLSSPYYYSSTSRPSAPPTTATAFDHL

[26] = A2780 cell killing – plate reader, dry powder samples, cytotoxicity control, dose response (AID 743046); type: functional, cell-based
[27] = CMV-driven luciferase expression suppression in HEK293 – cell-based, luminescence, dry powder, counter-screen for Pax8 inhibitor project, dose response (AID 743020); type: functional
[28] = OVCAR-3 cell viability loss – plate reader, dry powder samples, PAX8 inhibitor project, dose response (AID 743044); type: functional, cell-based
[29] = IGROV1 cell killing – plate reader, dry powder samples, PAX8 inhibitor project, dose response (AID 743043); type: functional, cell-based; conditions: IGROV-1
[30] = OVCAR8 cell viability loss – plate reader, dry powder samples, PAX8 project, dose response (AID 743197); type: functional, cell-based; conditions: OVCAR-8
cells = type: functional, cell-based
[31] = potency of ADAM10 substrate cleavage blockers – biochemical, QFRET, dose response (AID 743254);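 further: ADAM10 enzyme with the DM2 quenched FRET peptide as substrate; EDANS fluorescence gain as the protease cuts the substrate; inhibitor potency against ADAM10 proteolytic activity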
[32] = target: Disintegrin and metalloproteinase domain-containing protein 17 (Homo sapiens, UniProt P78536); test: inhibition of ADAM17 substrate cleavage – biochemical, quenched FRET substrate, counter-screen for ADAM10 exosite inhibitor project, dose response (AID 743253)
Sequence of Disintegrin and metalloproteinase domain-containing protein 17 (P78536 whole entry, the tested form may be a part): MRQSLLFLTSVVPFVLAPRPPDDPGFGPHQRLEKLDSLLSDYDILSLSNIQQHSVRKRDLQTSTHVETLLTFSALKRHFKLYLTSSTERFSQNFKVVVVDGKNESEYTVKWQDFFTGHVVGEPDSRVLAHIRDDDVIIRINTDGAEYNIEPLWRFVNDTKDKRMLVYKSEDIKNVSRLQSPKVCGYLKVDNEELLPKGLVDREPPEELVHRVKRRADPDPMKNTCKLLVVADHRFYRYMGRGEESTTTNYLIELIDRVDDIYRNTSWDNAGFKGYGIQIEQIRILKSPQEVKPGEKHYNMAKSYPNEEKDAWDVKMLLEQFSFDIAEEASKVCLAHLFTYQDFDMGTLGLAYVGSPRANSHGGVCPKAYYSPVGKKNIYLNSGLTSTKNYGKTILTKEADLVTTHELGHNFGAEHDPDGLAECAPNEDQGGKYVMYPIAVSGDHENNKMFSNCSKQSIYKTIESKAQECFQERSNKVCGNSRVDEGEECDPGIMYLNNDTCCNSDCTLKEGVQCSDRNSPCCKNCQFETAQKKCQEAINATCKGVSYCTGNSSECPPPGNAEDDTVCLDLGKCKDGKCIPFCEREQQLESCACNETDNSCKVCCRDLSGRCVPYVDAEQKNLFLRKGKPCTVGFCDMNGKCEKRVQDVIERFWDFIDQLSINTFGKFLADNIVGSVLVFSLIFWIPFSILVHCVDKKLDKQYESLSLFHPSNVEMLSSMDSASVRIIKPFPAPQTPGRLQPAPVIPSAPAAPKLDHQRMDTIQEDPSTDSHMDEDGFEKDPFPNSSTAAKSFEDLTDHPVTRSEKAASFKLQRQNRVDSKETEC

Protein Wnt-3a [33] = target: T1, Protein Wnt-3a; test: SAR analysis of small molecule antagonists of Gli-SUFU in a Wnt3a luminescent reporter assay.; type: functional
[34] = general cell-killing toxicity readout – plate reader, dry powder samples, cytotoxicity control for PAX8 inhibitor project, dose response (AID 743021); type: functional, cell-based
[35] = HEK-293T cell viability reduction – luminescence, B-cell screen hits, cytotoxicity control for BCR NF-kB inhibitor project, dose response (AID 489021); type: functional, cell-based;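 further: HEK-293T cells carrying an NF-kB luciferase reporter; cells exposed to compound for about 14 hours before viability readout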

CCCCN=C(S)NNC(=O)c1csc(C)c1
IC50 [1]: > 122 µM (inactive)
IC50 [2]: > 122 µM (inactive)

O=C(NCc1nc2ccccc2[nH]1)C1=C[C@H](c2ccc(Br)cc2)C[C@H](OCc2ccc(CO)cc2)O1
IC50 [3]: 81.3 µM (inactive)

CCCCOCCCNc1[nH]cnc2c3ccccc3nc1-2
EC50 [4]: > 50 µM (active)
AC50 (INS1): 1.78 µM (active)
AC50 [5]: 1.05 µM (active)
AC50 [6]: 22.9 µM (active)
AC50 [7]: 10.9 µM (active)
IC50 (Protein Wnt-3a [8]): 0.843 µM (active)
AC50 [9]: 33.8 µM (active)
AC50 [10]: 46.3 µM (active)
AC50 [11]: 14.8 µM (active)
AC50 [12]: 5.02 µM (active)
AC50 [13]: 1.48 µM (active)

Cc1cccc(-c2noc(CN(C(=O)C(c3ccccc3)c3ccccc3)C(C)C)n2)c1
EC50 [14]: 6.72 µM (active)
AC50 [5]: 6.27 µM (active)
AC50 [13]: 12.3 µM (active)

CN1C(=O)c2cc(NS(=O)(=O)c3ccc(Cl)cc3)ccc2OC[C@@H]2O[C@H](CC(=O)N3CCc4ccccc4C3)CC[C@H]21
AC50 [15]: 19.1 µM (active)
AC50 [16]: 46.9 µM (active)

CN(C)P(=O)(C(Cl)=C(N1CCCCC1)N1CCCCC1)N(C)C
AC50 [17]: 41.1 µM (active)
EC50 [18]: > 91.1 µM (inactive)
EC50 [19]: > 91.1 µM (inactive)

CN1C(=O)/C(=C/C=C2\SCCN2C)N(C)C1=S
EC50 [20]: 0.383 µM (active)
EC50 [21]: < 0.1 µM (active)
EC50 (H4): > 120 µM (inconclusive)
EC50 [22]: 0.41 µM (active)
EC50 [23]: 0.766 µM (active)
IC50 [24]: 20 µM (active)
EC50 [25]: > 67.6 µM (inactive)

COc1ccc2c3c(n(C)c2c1)[C@H](CO)N(Cc1ccccc1)CC31CCN(S(=O)(=O)c2ccc(C)cc2)CC1
AC50 (Paired box protein Pax-8): 6.41 µM (active)
AC50 [26]: 17.4 µM (active)
AC50 [27]: 14.3 µM (active)
AC50 [28]: 17.8 µM (active)
AC50 [29]: 51.1 µM (active)
AC50 [30]: 13.2 µM (active)

CCO[C@@H]1OC(C(=O)NCc2nc3ccccc3[nH]2)=C[C@H](c2ccc(Br)cc2)[C@H]1CCCO
IC50 [3]: 45.4 µM (inactive)

CCc1nnc(NS(=O)(=O)c2ccc(NC=C3C(=O)CC(C)(C)CC3=O)cc2)s1
IC50 (cells): 60.8 µM (inactive)

CCc1nc(C)cc2c1sc1ccccc12
EC50 [18]: > 91.2 µM (inactive)
EC50 [19]: > 91.2 µM (inactive)

C=CCN(c1ccccc1OC)S(=O)(=O)c1cccc(C(=O)OCC(=O)c2c[nH]c3ccccc23)c1
IC50 [31]: > 69.5 µM (inactive)
IC50 [32]: > 69.5 µM (inactive)

CC(C)CNc1cc(NC(=O)c2ccccc2)ncn1
IC50 (Protein Wnt-3a [33]): > 21.8 µM (inactive)

O=C1NC(=O)N(c2ccc(Cl)cc2)C(=O)/C1=C\Nc1ccc(S(=O)(=O)Nc2nccs2)cc1
IC50 (cells): 74.7 µM (inactive)

CCN(CC)c1ccc(NC(=O)COC(=O)CSc2ccc(Br)cc2C)cc1
IC50 [31]: > 7.72 µM (active)
IC50 [32]: > 69.5 µM (inactive)

C[C@H]1CN([C@@H](C)CO)C(=O)Cc2cc(NC(=O)Nc3ccc4c(c3)OCO4)ccc2O[C@@H]1CN(C)CC1CCCCC1
AC50 (Paired box protein Pax-8): 31.2 µM (active)
AC50 [26]: 22.2 µM (active)
AC50 [30]: 62.9 µM (active)

COc1cc(C=C2C(=O)C=CC2=O)ccc1O
AC50 (Paired box protein Pax-8): 1.63 µM (active)
AC50 [34]: 19.1 µM (active)

COc1ccc(NC(=O)N(C)C[C@H]2OCCCC[C@@H](C)Oc3ccc(NC(=O)Nc4ccc(C(F)(F)F)cc4)cc3C(=O)N([C@@H](C)CO)C[C@@H]2C)cc1
AC50 (Paired box protein Pax-8): 3.41 µM (active)
AC50 [27]: 41 µM (active)
AC50 [28]: 24 µM (active)
AC50 [30]: > 70 µM (inactive)

CCOc1ccc(S(=O)(=O)NCc2ccncc2)cc1NC(=O)c1ccccc1
IC50 [35]: > 80 µM (inactive)
IC50 (Protein Wnt-3a [8]): 33.2 µM (inactive)
IC50 (Protein Wnt-3a [33]): > 21.8 µM (inactive)
